{
  "source": "patent US12605323B2",
  "about": "“Composition for inhibiting hair graying, and use thereof” (LG HOUSEHOLD & HEALTH CARE LTD., priority 2020, dated 2026)",
  "key": {"[1]": {"test_system": "Wnt/β-catenin signaling pathway (TCF/LEF Responsive Luciferase Reporter HEK293A cell line)", "assay": "Effect of enhancing Wnt/β-catenin signaling, TCF/LEF responsive luciferase reporter assay", "type": "cell-based", "conditions": "10 μg/mL, 24 hours, WRHEK293A cells, non-treated control = 100%", "experimental": "To determine activation of the Wnt/β-catenin signaling pathway, TCF/LEF Responsive Luciferase Reporter HEK293A stabilized cell line (Wnt Reporter HEK293A cell; WRHEK293A) was used in this test. The stabilized cell line was maintained through the subculture using MEM (Corning, USA) and fetal bovine serum (Gibco BRL, Gaithersburg, MD, USA). To carry out a transcriptional activity test, 30,000 cells were seeded per well in a 96-well plate and cultured in an incubator at 37° C. for 24 hours. Then, according to the present disclosure, treatment with each of escin, 27-deoxyactein, lysionotin, nitidine chloride, lanosterol, engeletin, specnuezhenide, praeruptorin B, rotundic acid, sesamoside, polygalacin D, momordin Ic, valechlorine, tussilagone, periplocin, polyphyllin VII and platycodin D2 was carried out as shown in the following Table 1. After culturing for 24 hours, a luciferase assay system (Promega) was used to perform reporter analysis. The analysis was carried out by the test method provided by the production company, and luminescence was determined by using Victor multiwall plate reader (PerkinElmer, USA). To determine cytotoxicity caused by the treatment, development of fluorescence of GFP as an internal control was determined. The luminescence value derived from the reaction with luciferase was divided by the GFP fluorescence value, and the values of the test group were calculated by taking the value of the non-treated control as 100% and expressed in the unit of percentage (%) (Table 1)."}, "[2]": {"test_system": "B-16 mouse melanoma cells", "assay": "Determination of effect of producing melanin", "type": "cell-based", "conditions": "B-16 melanoma cells; for Melanin synthesis (%): non-treated control = 100%", "experimental": "In this test, the compounds in Test Example 1 showing an effect of enhancing the Wnt signaling were added to the culture medium of mouse-derived melanoma cells (B-16 mouse melanoma cells) to determine the effect of producing melanin in a cellular level (Lotan R., Lotan D. Cancer Res. 40: 3345-3350, 1980). Before the test, B-16 melanoma cells were evaluated in terms of toxicity, and the non-toxic concentration was selected to carry out evaluation of melanin production. B-16 melanoma cells were subcultured in DMEM (Gibco BRL., Gaithersburg, MD, USA) containing 10% FBS. Then, seeding to a 100 mm cell culture dish was performed to synthesize and extract melanin, and the cells were treated with each compound when the confluency was 70%. The compound was used for treating the cell culture at a concentration of 10 μg/mL. In addition, α-melanocyte stimulating hormone (α-MSH) was used as control, added to the culture medium to 10 nM to treat B-16 melanoma cells, and cultured for 48 hours. Then, the cells were treated with trypsin to strip them off the culture container, and centrifugal separation was carried out to extract melanin. After that, 1 mL of sodium hydroxide (1 N concentration) solution was added to the stripped cells and the mixture was boiled for 10 minutes so that melanin may be dissolved. The amount of melanin production was determined by measuring the absorbance at 400 nm by using a spectrophotometer. The amount of melanin was quantified in the unit of μg/mL by using a standard absorbance curve as a function of melanin concentration. The value of the non-treated control was taken as 100%, and the values of the test group were calculated as a percentage (%) on the basis thereof (Table 2)."}},
  "note": "Where no end group is shown, it is not given here.",
  "data": [
    {"compound": "COC(=O)C1=CO[C@@H](O[C@@H]2O[C@H](CO)[C@@H](O)[C@H](O)[C@H]2O)[C@@H]2[C@@]3(C)O[C@H]3[C@@H](O)[C@]12O", "note": "[Sesamoside, sesamoside]", "values": [
      {"measurement": "Wnt signaling activation capability (%) (Luminescence/GFP)", "setting": "[1]", "value": 275, "unit": "%"},
      {"measurement": "Melanin synthesis (%)", "setting": "[2]; 10 μg/mL", "value": 112, "unit": "%"}
    ]},
    {"compound": "α-melanocyte stimulating hormone (SYSMEHFRWGKPV; ends and bridges not checked; UniProt P01189 138-150, looked up) [α-MSH, α-melanocyte stimulating hormone used as control at 10 nM, reference compound]", "values": [
      {"measurement": "Melanin synthesis (%)", "setting": "[2]; 10 nM, 48 hours", "value": 135, "unit": "%"}
    ]},
    {"compound": "polyphyllin VII", "values": [
      {"measurement": "Wnt signaling activation capability (%) (Luminescence/GFP)", "setting": "[1]", "value": 275, "unit": "%"},
      {"measurement": "Melanin synthesis (%)", "setting": "[2]; 10 μg/mL", "value": 127, "unit": "%"}
    ]},
    {"compound": "C[C@@H]1O[C@@H](O[C@H]2[C@H](OC(=O)[C@]34CCC(C)(C)C[C@H]3C3=CC[C@@H]5[C@@]6(C)C[C@H](O)[C@H](O[C@@H]7O[C@H](CO)[C@@H](O)[C@H](O)[C@H]7O)[C@@](C)(CO)[C@@H]6CC[C@@]5(C)[C@]3(C)C[C@H]4O)OC[C@H](O)[C@@H]2O)[C@H](O)[C@H](O)[C@H]1O[C@@H]1OC[C@@H](O)[C@H](O[C@@H]2OC[C@](O)(CO)[C@H]2O)[C@H]1O", "note": "[Polygalacin D, polygalacin D]", "values": [
      {"measurement": "Wnt signaling activation capability (%) (Luminescence/GFP)", "setting": "[1]", "value": 292, "unit": "%"},
      {"measurement": "Melanin synthesis (%)", "setting": "[2]; 10 μg/mL", "value": 114, "unit": "%"}
    ]},
    {"compound": "C=C1[C@H](OC(=O)/C=C(\\C)CC)C[C@@H](C(C)C)[C@@H]2[C@@H]([C@@H](C)OC(C)=O)C(=O)C[C@@H]12", "note": "[Tussilagone, tussilagone]", "values": [
      {"measurement": "Wnt signaling activation capability (%) (Luminescence/GFP)", "setting": "[1]", "value": 195, "unit": "%"},
      {"measurement": "Melanin synthesis (%)", "setting": "[2]; 10 μg/mL", "value": 136, "unit": "%"}
    ]},
    {"compound": "CC(C)=CCC[C@@H](C)[C@H]1CC[C@@]2(C)C3=C(CC[C@]12C)[C@@]1(C)CC[C@H](O)C(C)(C)[C@@H]1CC3", "note": "[Lanosterol, lanosterol]", "values": [
      {"measurement": "Wnt signaling activation capability (%) (Luminescence/GFP)", "setting": "[1]", "value": 194, "unit": "%"},
      {"measurement": "Melanin synthesis (%)", "setting": "[2]; 10 μg/mL", "value": 110, "unit": "%"}
    ]},
    {"compound": "C[C@@H]1CC[C@]2(C(=O)O)CC[C@]3(C)C(=CC[C@@H]4[C@@]5(C)CC[C@H](O)[C@@](C)(CO)[C@@H]5CC[C@]43C)[C@@H]2[C@]1(C)O", "note": "[Rotunic acid, rotundic acid]", "values": [
      {"measurement": "Wnt signaling activation capability (%) (Luminescence/GFP)", "setting": "[1]", "value": 296, "unit": "%"},
      {"measurement": "Melanin synthesis (%)", "setting": "[2]; 10 μg/mL", "value": 144, "unit": "%"}
    ]},
    {"compound": "CC(=O)O[C@@H]1C[C@@]23C[C@@]24CC[C@H](O[C@@H]2OC[C@@H](O)[C@H](O)[C@H]2O)C(C)(C)[C@@H]4CC[C@H]3[C@]2(C)C[C@@H]3O[C@]4(C[C@@H](C)[C@@H]3[C@@]12C)OC[C@@]1(C)O[C@@H]41", "note": "[27-Deoxyactein, 27-deoxyactein]", "values": [
      {"measurement": "Wnt signaling activation capability (%) (Luminescence/GFP)", "setting": "[1]", "value": 1717, "unit": "%"},
      {"measurement": "Melanin synthesis (%)", "setting": "[2]; 10 μg/mL", "value": 168, "unit": "%"}
    ]},
    {"compound": "C[C@@H]1O[C@@H](O[C@H]2[C@H](OC(=O)[C@]34CCC(C)(C)C[C@H]3C3=CC[C@@H]5[C@@]6(C)C[C@H](O)[C@H](O[C@@H]7O[C@H](CO)[C@@H](O)[C@H](O[C@@H]8O[C@H](CO)[C@@H](O)[C@H](O)[C@H]8O)[C@H]7O)C(CO)(CO)[C@@H]6CC[C@@]5(C)[C@]3(C)C[C@H]4O)OC[C@H](O)[C@@H]2O)[C@H](O)[C@H](O)[C@H]1O[C@@H]1OC[C@@H](O)[C@H](O[C@@H]2OC[C@](O)(CO)[C@H]2O)[C@H]1O", "note": "[Platycodin D2, platycodin D2]", "values": [
      {"measurement": "Wnt signaling activation capability (%) (Luminescence/GFP)", "setting": "[1]", "value": 216, "unit": "%"},
      {"measurement": "Melanin synthesis (%)", "setting": "[2]; 10 μg/mL", "value": 119, "unit": "%"}
    ]},
    {"compound": "C/C=C(/C)C(=O)O[C@H]1c2c(ccc3ccc(=O)oc23)OC(C)(C)[C@H]1OC(=O)/C(C)=C\\C", "note": "[Praeruptorin B, praeruptorin B]", "values": [
      {"measurement": "Wnt signaling activation capability (%) (Luminescence/GFP)", "setting": "[1]", "value": 241, "unit": "%"},
      {"measurement": "Melanin synthesis (%)", "setting": "[2]; 10 μg/mL", "value": 136, "unit": "%"}
    ]},
    {"compound": "valechlorine", "values": [
      {"measurement": "Wnt signaling activation capability (%) (Luminescence/GFP)", "setting": "[1]", "value": 218, "unit": "%"},
      {"measurement": "Melanin synthesis (%)", "setting": "[2]; 10 μg/mL", "value": 139, "unit": "%"}
    ]},
    {"compound": "escin", "values": [
      {"measurement": "Wnt signaling activation capability (%) (Luminescence/GFP)", "setting": "[1]", "value": 1098, "unit": "%"},
      {"measurement": "Melanin synthesis (%)", "setting": "[2]; 10 μg/mL", "value": 154, "unit": "%"},
      {"measurement": "melanin synthesis (FIG. 1)", "setting": "[2]", "value": "increase in melanin synthesis"}
    ]},
    {"compound": "CO[C@H]1C[C@H](O[C@H]2CC[C@]3(C)[C@H]4CC[C@]5(C)[C@@H](C6=CC(=O)OC6)CC[C@]5(O)[C@@H]4CC[C@]3(O)C2)O[C@H](C)[C@H]1O[C@@H]1O[C@H](CO)[C@@H](O)[C@H](O)[C@H]1O", "note": "[Periplocin, periplocin]", "values": [
      {"measurement": "Wnt signaling activation capability (%) (Luminescence/GFP)", "setting": "[1]", "value": 244, "unit": "%"},
      {"measurement": "Melanin synthesis (%)", "setting": "[2]; 10 μg/mL", "value": 128, "unit": "%"}
    ]},
    {"compound": "CC1(C)CC[C@]2(C(=O)O)CC[C@]3(C)C(=CC[C@@H]4[C@@]5(C)CC[C@H](O[C@@H]6O[C@H](C(=O)O)[C@@H](O)[C@H](O[C@@H]7OC[C@@H](O)[C@H](O)[C@H]7O)[C@H]6O)C(C)(C)[C@@H]5CC[C@]43C)[C@@H]2C1", "note": "[Momordin Ic, momordin Ic]", "values": [
      {"measurement": "Wnt signaling activation capability (%) (Luminescence/GFP)", "setting": "[1]", "value": 370, "unit": "%"},
      {"measurement": "Melanin synthesis (%)", "setting": "[2]; 10 μg/mL", "value": 131, "unit": "%"}
    ]},
    {"compound": "CC1OC(OC2C(=O)c3c(O)cc(O)cc3OC2c2ccc(O)cc2)C(O)C(O)C1O", "note": "(stereo not drawn) [Engeletin, engeletin]", "values": [
      {"measurement": "Wnt signaling activation capability (%) (Luminescence/GFP)", "setting": "[1]", "value": 223, "unit": "%"},
      {"measurement": "Melanin synthesis (%)", "setting": "[2]; 10 μg/mL", "value": 121, "unit": "%"}
    ]},
    {"compound": "CC=C1[C@H](O[C@@H]2O[C@H](CO)[C@@H](O)[C@H](O)[C@H]2O)OC=C(C(=O)OC)[C@H]1CC(=O)OC[C@H]1O[C@@H](OCCc2ccc(O)cc2)[C@H](O)[C@@H](O)[C@@H]1O", "note": "(stereo in doubt) [Specnuezhenide, specnuezhenide]", "values": [
      {"measurement": "Wnt signaling activation capability (%) (Luminescence/GFP)", "setting": "[1]", "value": 243, "unit": "%"},
      {"measurement": "Melanin synthesis (%)", "setting": "[2]; 10 μg/mL", "value": 106, "unit": "%"}
    ]},
    {"compound": "COc1cc2c[n+](C)c3c4cc5c(cc4ccc3c2cc1OC)OCO5", "note": "[Nitidine chloride, nitidine chloride]", "values": [
      {"measurement": "Wnt signaling activation capability (%) (Luminescence/GFP)", "setting": "[1]", "value": 274, "unit": "%"},
      {"measurement": "Melanin synthesis (%)", "setting": "[2]; 10 μg/mL", "value": 125, "unit": "%"}
    ]},
    {"compound": "COc1ccc(-c2cc(=O)c3c(O)c(OC)c(O)c(OC)c3o2)cc1", "note": "[Lysionotin, lysionotin]", "values": [
      {"measurement": "Wnt signaling activation capability (%) (Luminescence/GFP)", "setting": "[1]", "value": 196, "unit": "%"},
      {"measurement": "Melanin synthesis (%)", "setting": "[2]; 10 μg/mL", "value": 135, "unit": "%"}
    ]}
  ]
}
